Reference: ChEMBL document CHEMBL5365535, “Selenoneine-inspired selenohydantoins with glutathione peroxidase-like activity” (Bioorg Med Chem, 2023)
Calls of active or inactive are those of the source. The calls are words filed in the database; no cut-off is given here.

Legend:
[1] = Antioxidant activity assessed as DPPH radical scavenging activity incubated for 60 min by DPPH assay; type: functional
[2] = Antioxidant activity assessed as FRAP radical scavenging activity by measuring reduction of Fe3+ complex to Fe2+ analogue incubated for 5 mins by FRAP assay; type: functional; parameters: reference not given here
[3] = Antioxidant activity assessed as time to reach reaction completion; type: functional
[4] = Antioxidant activity assessed as anti-radical efficiency; type: functional
[5] = Antioxidant activity assessed as rate constant; type: functional
[6] = Glutathione peroxidase-like activity assessed as decrease in NADPH level at 20 uM in the presence of H2O2 and glutathione reductase by UV-VIS spectrophotometer analysis (reference value: 37 microM/min); type: physicochemical
[7] = Glutathione peroxidase-like activity assessed as decrease in NADPH level at 20 uM in the presence of cumene hydroperoxide and glutathione reductase by UV-VIS spectrophotometer analysis (reference value: 7 microM/min); type: physicochemical
[8] = Glutathione peroxidase-like activity assessed as time to reach completion of the linear part at 20 uM in presence of H2O2 by UV-VIS spectrophotometer analysis; type: physicochemical
[9] = Glutathione peroxidase-like activity assessed as time to reach completion of the linear part at 20 uM in presence of cumene hydroperoxide by UV-VIS spectrophotometer analysis; type: physicochemical
[10] = Cytotoxicity against HuAoSMC cells assessed as metabolic activity at below 100 uM incubated for 24 hrs by MTT assay; type: toxicity, cell-based; settings: human, read-out: Activity
[11] = Cytotoxicity against HuAoSMC cells assessed as metabolic activity at 1 uM incubated for 24 hrs by MTT assay; type: toxicity, cell-based; settings: human

SMILES | EC50 ([1]; read-out: EC50) [µM] | Activity [2] | TIME [3] [h] | Activity [4] | K [5] [s⁻¹] | Activity [6] [µM/min] | Activity [7] [µM/min] | Time [8] [s] | Time [9] [s] | viability at 24 h, 100 µM [10] [%] | Activity [11] | EC50 [1]
O=C1NC(=[Se])NC1Cc1ccc(C(F)(F)F)cc1 (configuration not stated) | 35 | 363 µM | 0.233 | 2.1 10^-3/min/µM | 1.6 | 63 | 32 | 100 | 180 | > 70 | – | –
O=C1NC(=[Se])NC1Cc1cccc2ccccc12 (configuration not stated) | 44 | 271 µM | 0.367 | 1 10^-3/min/µM | 0.84 | 39 | 18 | 187 | 360 | > 70 | – | –
N[C@@H](CCC(=O)N[C@@H](CS)C(=O)NCC(=O)O)C(=O)O [GLUTATHIONE] | 50 | 94 µM | 0.483 | 0.69 10^-3/min/µM | 0.53 | – | – | – | – | – | – | –
COc1ccc(CC2NC(=[Se])NC2=O)cc1 (configuration not stated) | 38 | 314 µM | 0.3 | 1.4 10^-3/min/µM | 1.2 | 49 | 13 | 140 | 467 | > 70 | – | –
NCC[Se][Se]CCN | – | – | – | – | – | 53 | 66 | 153 | 93 | – | Toxic | –
O=c1c2ccccc2[se]n1-c1ccccc1 [EBSELEN] | – | inactive | – | – | – | 75 | 33 | 80 | 187 | – | – | Not Active
O=C1NC(=[Se])NC1Cc1ccc(Br)cc1 (configuration not stated) | 60 | 180 µM | – | – | – | 51 | 17 | 127 | 393 | > 70 | – | –
O=C1NC(=[Se])NC1Cc1ccc(F)cc1 (configuration not stated) | 39 | 439 µM | 0.4 | 1.05 10^-3/min/µM | 0.89 | 57 | 13 | 107 | 460 | > 70 | – | –
O=C1NC(=[Se])NC1Cc1ccc(Cl)cc1 (configuration not stated) | 44 | 421 µM | 0.183 | 2.1 10^-3/min/µM | 2.28 | 54 | 27 | 113 | 253 | > 70 | – | –
Cc1ccc(CC2NC(=[Se])NC2=O)cc1 (configuration not stated) | 89 | 116 µM | – | – | – | 55 | 18 | 107 | 367 | > 70 | – | –
O=C1NC(=[Se])NC1Cc1ccccc1 (configuration not stated) | 37 | 219 µM | 0.7 | 0.63 10^-3/min/µM | 0.46 | 55 | 18 | 113 | 413 | > 70 | – | –
O=C1O[C@H]([C@@H](O)CO)C(O)=C1O [ASCORBIC ACID] | 17.8 | 1630 µM | – | – | – | – | – | – | – | – | – | –
